Reference: patent US20260166128A1, “HUMAN AMYLIN ANALOG, AND DERIVATIVE THEREOF AND USE THEREOF” (priority 2022, published 2026)
pEC50: −log10 of the molar value. Numbered stars: 1 amine (or outer) side, 2 acyl side, 3 side chain; on linkers, the order of the positions; unused ones are H or OH. Bridge positions count the residues as written; N and C are the ends. Square brackets hold non-standard residues; d marks the D form. Peptide text beside a SMILES is read from it. * marks the point of attachment. C20 diacid = O=C(O)CCCCCCCCCCCCCCCCCCC(=O)*; γGlu = O=C(O)[C@H](CCC(=O)[*:2])N[*:1]; X3 = O=C(C1CCC(CN[*:1])CC1)[*:2]; Cit = NC(=O)NCCC[C@H](N)C(=O)O; Orn = NCCC[C@H](N)C(=O)O; Dab = NCC[C@H](N)C(=O)O; Dap = NC[C@H](N)C(=O)O; Sar = CNCC(=O)O

Molecular target: T1, human amylin receptor (Homo sapiens, UniProt O60896+P30988)
T1 construct: host or cells: CHO-K1/Ga15/AMY3 cells, further stably transfected with a CRE-luciferase plasmid
T1 sequence (P30988 25-474): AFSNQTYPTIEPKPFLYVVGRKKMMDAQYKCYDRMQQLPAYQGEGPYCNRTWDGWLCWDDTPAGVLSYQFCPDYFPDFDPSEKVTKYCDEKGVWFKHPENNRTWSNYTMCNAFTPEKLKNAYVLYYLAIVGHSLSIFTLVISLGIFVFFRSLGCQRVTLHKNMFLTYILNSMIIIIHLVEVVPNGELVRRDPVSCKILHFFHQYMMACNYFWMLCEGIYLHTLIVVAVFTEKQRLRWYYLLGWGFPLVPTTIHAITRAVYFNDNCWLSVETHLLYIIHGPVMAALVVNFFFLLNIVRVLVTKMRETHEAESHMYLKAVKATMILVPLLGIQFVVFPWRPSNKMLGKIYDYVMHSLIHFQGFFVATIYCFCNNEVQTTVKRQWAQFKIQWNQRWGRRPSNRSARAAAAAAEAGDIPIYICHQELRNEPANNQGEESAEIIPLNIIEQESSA
T1 sequence (O60896 24-148 partner): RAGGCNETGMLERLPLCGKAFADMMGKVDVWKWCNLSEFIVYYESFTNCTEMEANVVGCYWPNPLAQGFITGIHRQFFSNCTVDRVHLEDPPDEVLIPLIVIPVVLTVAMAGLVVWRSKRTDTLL
Test: Luciferase assay of amylin derivatives in amylin receptor/CRE-luc CHO cell line
Assay type: cell-based
Conditions: CHO-K1/Ga15/AMY3 CRE-luc cells, 24 hours incubation, F12 medium containing 10% FBS; read-out: EC50
Procedure: The experiment was intended to detect the activity or efficacy of the amylin derivatives on a human amylin receptor in vitro by luciferase assay.
50 μL of growth medium (F12 medium containing 10% FBS) was added into each well of a white 96-well plate, and the stably transfected amylin/CRE-lue CHO cells were inoculated into the white 96-well plate at a density of about 20,000 cells/well for activity determination.

SMILES | pEC50
CC[C@H](C)[C@H](NC(=O)[C@@H]1CCCN1C(=O)[C@H](CO)NC(=O)[C@H](CC(C)C)NC(=O)[C@H](CC(N)=O)NC(=O)[C@H](CC(N)=O)NC(=O)[C@H](CO)NC(=O)[C@H](CO)NC(=O)[C@H](Cc1c[nH]cn1)NC(=O)[C@H](CCCNC(=N)N)NC(=O)[C@H](CC(C)C)NC(=O)[C@H](Cc1ccccc1)NC(=O)[C@H](CC(=O)O)NC(=O)[C@H](C)NC(=O)[C@H](CC(C)C)NC(=O)[C@H](CCCNC(=N)N)NC(=O)[C@H](CCC(N)=O)NC(=O)[C@@H](NC(=O)[C@H](C)NC(=O)[C@@H]1CSSC[C@H](NC(=O)[C@H](CCCCN)NC(=O)CC[C@H](NC(=O)CCCCCCCCCCCCCCCCCCC(=O)O)C(=O)O)C(=O)N[C@@H](CC(N)=O)C(=O)N[C@@H]([C@@H](C)O)C(=O)N[C@@H](C)C(=O)N[C@@H]([C@@H](C)O)C(=O)N1)[C@@H](C)O)C(=O)N[C@@H](CC(C)C)C(=O)N1CCC[C@H]1C(=O)N1CCC[C@H]1C(=O)N[C@H](C(=O)N[C@@H](CC(N)=O)C(=O)N[C@H](C(=O)NCC(=O)N[C@@H](CO)C(=O)N[C@@H](CC(N)=O)C(=O)N[C@H](C(=O)N1CCC[C@H]1C(N)=O)[C@@H](C)O)C(C)C)[C@@H](C)O [PD166] ({C20 diacid-γGlu}-KCNTATCATQRLADFLRHSSNNLSPILPPTNVGSNTP-NH2; disulfide 2-7 (inferred)) | 10.27
CC[C@H](C)[C@H](NC(=O)[C@@H]1CCCN1C(=O)[C@H](CN)NC(=O)[C@H](CC(C)C)NC(=O)[C@H](CC(N)=O)NC(=O)[C@H](CC(N)=O)NC(=O)[C@H](CO)NC(=O)[C@H](CO)NC(=O)[C@H](Cc1c[nH]cn1)NC(=O)[C@H](CCCNC(=N)N)NC(=O)[C@H](CC(C)C)NC(=O)[C@H](Cc1ccccc1)NC(=O)[C@H](CC(=O)O)NC(=O)[C@H](C)NC(=O)[C@H](CC(C)C)NC(=O)[C@H](CCCNC(=N)N)NC(=O)[C@H](CCC(N)=O)NC(=O)[C@@H](NC(=O)[C@H](C)NC(=O)[C@@H]1CSSC[C@H](NC(=O)[C@H](CCCCN)NC(=O)CC[C@H](NC(=O)CCCCCCCCCCCCCCCCCCC(=O)O)C(=O)O)C(=O)N[C@@H](CC(N)=O)C(=O)N[C@@H]([C@@H](C)O)C(=O)N[C@@H](C)C(=O)N[C@@H]([C@@H](C)O)C(=O)N1)[C@@H](C)O)C(=O)N[C@@H](CC(C)C)C(=O)N1CCC[C@H]1C(=O)N1CCC[C@H]1C(=O)N[C@H](C(=O)N[C@@H](CC(N)=O)C(=O)N[C@H](C(=O)NCC(=O)N[C@@H](CO)C(=O)N[C@@H](CC(N)=O)C(=O)N[C@H](C(=O)N1CCC[C@H]1C(N)=O)[C@@H](C)O)C(C)C)[C@@H](C)O [PD168] ({C20 diacid-γGlu}-KCNTATCATQRLADFLRHSSNNL[Dap]PILPPTNVGSNTP-NH2; disulfide 2-7 (inferred)) | 10.39
CC[C@H](C)[C@H](NC(=O)[C@@H]1CCCN1C(=O)[C@H](CCN)NC(=O)[C@H](CC(C)C)NC(=O)[C@H](CC(N)=O)NC(=O)[C@H](CC(N)=O)NC(=O)[C@H](CO)NC(=O)[C@H](CO)NC(=O)[C@H](Cc1c[nH]cn1)NC(=O)[C@H](CCCNC(=N)N)NC(=O)[C@H](CC(C)C)NC(=O)[C@H](Cc1ccccc1)NC(=O)[C@H](CC(=O)O)NC(=O)[C@H](C)NC(=O)[C@H](CC(C)C)NC(=O)[C@H](CCCNC(=N)N)NC(=O)[C@H](CCC(N)=O)NC(=O)[C@@H](NC(=O)[C@H](C)NC(=O)[C@@H]1CSSC[C@H](NC(=O)[C@H](CCCCN)NC(=O)CC[C@H](NC(=O)CCCCCCCCCCCCCCCCCCC(=O)O)C(=O)O)C(=O)N[C@@H](CC(N)=O)C(=O)N[C@@H]([C@@H](C)O)C(=O)N[C@@H](C)C(=O)N[C@@H]([C@@H](C)O)C(=O)N1)[C@@H](C)O)C(=O)N[C@@H](CC(C)C)C(=O)N1CCC[C@H]1C(=O)N1CCC[C@H]1C(=O)N[C@H](C(=O)N[C@@H](CC(N)=O)C(=O)N[C@H](C(=O)NCC(=O)N[C@@H](CO)C(=O)N[C@@H](CC(N)=O)C(=O)N[C@H](C(=O)N1CCC[C@H]1C(N)=O)[C@@H](C)O)C(C)C)[C@@H](C)O [PD169] ({C20 diacid-γGlu}-KCNTATCATQRLADFLRHSSNNL[Dab]PILPPTNVGSNTP-NH2; disulfide 2-7 (inferred)) | 10.41
CC[C@H](C)[C@H](NC(=O)[C@@H]1CCCN1C(=O)[C@H](CCCN)NC(=O)[C@H](CC(C)C)NC(=O)[C@H](CC(N)=O)NC(=O)[C@H](CC(N)=O)NC(=O)[C@H](CO)NC(=O)[C@H](CO)NC(=O)[C@H](Cc1c[nH]cn1)NC(=O)[C@H](CCCNC(=N)N)NC(=O)[C@H](CC(C)C)NC(=O)[C@H](Cc1ccccc1)NC(=O)[C@H](CC(=O)O)NC(=O)[C@H](C)NC(=O)[C@H](CC(C)C)NC(=O)[C@H](CCCNC(=N)N)NC(=O)[C@H](CCC(N)=O)NC(=O)[C@@H](NC(=O)[C@H](C)NC(=O)[C@@H]1CSSC[C@H](NC(=O)[C@H](CCCCN)NC(=O)CC[C@H](NC(=O)CCCCCCCCCCCCCCCCCCC(=O)O)C(=O)O)C(=O)N[C@@H](CC(N)=O)C(=O)N[C@@H]([C@@H](C)O)C(=O)N[C@@H](C)C(=O)N[C@@H]([C@@H](C)O)C(=O)N1)[C@@H](C)O)C(=O)N[C@@H](CC(C)C)C(=O)N1CCC[C@H]1C(=O)N1CCC[C@H]1C(=O)N[C@H](C(=O)N[C@@H](CC(N)=O)C(=O)N[C@H](C(=O)NCC(=O)N[C@@H](CO)C(=O)N[C@@H](CC(N)=O)C(=O)N[C@H](C(=O)N1CCC[C@H]1C(N)=O)[C@@H](C)O)C(C)C)[C@@H](C)O [PD170] ({C20 diacid-γGlu}-KCNTATCATQRLADFLRHSSNNL[Orn]PILPPTNVGSNTP-NH2; disulfide 2-7 (inferred)) | 10.39
CC[C@H](C)[C@H](NC(=O)[C@@H]1CCCN1C(=O)[C@H](CCCNC(N)=O)NC(=O)[C@H](CC(C)C)NC(=O)[C@H](CC(N)=O)NC(=O)[C@H](CC(N)=O)NC(=O)[C@H](CO)NC(=O)[C@H](CO)NC(=O)[C@H](Cc1c[nH]cn1)NC(=O)[C@H](CCCNC(=N)N)NC(=O)[C@H](CC(C)C)NC(=O)[C@H](Cc1ccccc1)NC(=O)[C@H](CC(=O)O)NC(=O)[C@H](C)NC(=O)[C@H](CC(C)C)NC(=O)[C@H](CCCNC(=N)N)NC(=O)[C@H](CCC(N)=O)NC(=O)[C@@H](NC(=O)[C@H](C)NC(=O)[C@@H]1CSSC[C@H](NC(=O)[C@H](CCCCN)NC(=O)CC[C@H](NC(=O)CCCCCCCCCCCCCCCCCCC(=O)O)C(=O)O)C(=O)N[C@@H](CC(N)=O)C(=O)N[C@@H]([C@@H](C)O)C(=O)N[C@@H](C)C(=O)N[C@@H]([C@@H](C)O)C(=O)N1)[C@@H](C)O)C(=O)N[C@@H](CC(C)C)C(=O)N1CCC[C@H]1C(=O)N1CCC[C@H]1C(=O)N[C@H](C(=O)N[C@@H](CC(N)=O)C(=O)N[C@H](C(=O)NCC(=O)N[C@@H](CO)C(=O)N[C@@H](CC(N)=O)C(=O)N[C@H](C(=O)N1CCC[C@H]1C(N)=O)[C@@H](C)O)C(C)C)[C@@H](C)O [PD171] ({C20 diacid-γGlu}-KCNTATCATQRLADFLRHSSNNL[Cit]PILPPTNVGSNTP-NH2; disulfide 2-7 (inferred)) | 10.28
CC[C@H](C)[C@H](NC(=O)[C@@H]1CCCN1C(=O)CN(C)C(=O)[C@H](CC(C)C)NC(=O)[C@H](CC(N)=O)NC(=O)[C@H](CC(N)=O)NC(=O)[C@H](CO)NC(=O)[C@H](CO)NC(=O)[C@H](Cc1c[nH]cn1)NC(=O)[C@H](CCCNC(=N)N)NC(=O)[C@H](CC(C)C)NC(=O)[C@H](Cc1ccccc1)NC(=O)[C@H](CC(=O)O)NC(=O)[C@H](C)NC(=O)[C@H](CC(C)C)NC(=O)[C@H](CCCNC(=N)N)NC(=O)[C@H](CCC(N)=O)NC(=O)[C@@H](NC(=O)[C@H](C)NC(=O)[C@@H]1CSSC[C@H](NC(=O)[C@H](CCCCN)NC(=O)CC[C@H](NC(=O)CCCCCCCCCCCCCCCCCCC(=O)O)C(=O)O)C(=O)N[C@@H](CC(N)=O)C(=O)N[C@@H]([C@@H](C)O)C(=O)N[C@@H](C)C(=O)N[C@@H]([C@@H](C)O)C(=O)N1)[C@@H](C)O)C(=O)N[C@@H](CC(C)C)C(=O)N1CCC[C@H]1C(=O)N1CCC[C@H]1C(=O)N[C@H](C(=O)N[C@@H](CC(N)=O)C(=O)N[C@H](C(=O)NCC(=O)N[C@@H](CO)C(=O)N[C@@H](CC(N)=O)C(=O)N[C@H](C(=O)N1CCC[C@H]1C(N)=O)[C@@H](C)O)C(C)C)[C@@H](C)O [PD172] ({C20 diacid-γGlu}-KCNTATCATQRLADFLRHSSNNL[Sar]PILPPTNVGSNTP-NH2; disulfide 2-7 (inferred)) | 10.12
CC[C@H](C)[C@H](NC(=O)[C@@H]1CCCN1C(=O)C1CCC(CNC(=O)[C@H](CC(C)C)NC(=O)[C@H](CC(N)=O)NC(=O)[C@H](CC(N)=O)NC(=O)[C@H](CO)NC(=O)[C@H](CO)NC(=O)[C@H](Cc2c[nH]cn2)NC(=O)[C@H](CCCNC(=N)N)NC(=O)[C@H](CC(C)C)NC(=O)[C@H](Cc2ccccc2)NC(=O)[C@H](CC(=O)O)NC(=O)[C@H](C)NC(=O)[C@H](CC(C)C)NC(=O)[C@H](CCCNC(=N)N)NC(=O)[C@H](CCC(N)=O)NC(=O)[C@@H](NC(=O)[C@H](C)NC(=O)[C@@H]2CSSC[C@H](NC(=O)[C@H](CCCCN)NC(=O)CC[C@H](NC(=O)CCCCCCCCCCCCCCCCCCC(=O)O)C(=O)O)C(=O)N[C@@H](CC(N)=O)C(=O)N[C@@H]([C@@H](C)O)C(=O)N[C@@H](C)C(=O)N[C@@H]([C@@H](C)O)C(=O)N2)[C@@H](C)O)CC1)C(=O)N[C@@H](CC(C)C)C(=O)N1CCC[C@H]1C(=O)N1CCC[C@H]1C(=O)N[C@H](C(=O)N[C@@H](CC(N)=O)C(=O)N[C@H](C(=O)NCC(=O)N[C@@H](CO)C(=O)N[C@@H](CC(N)=O)C(=O)N[C@H](C(=O)N1CCC[C@H]1C(N)=O)[C@@H](C)O)C(C)C)[C@@H](C)O (stereo partly shown) [PD173] ({C20 diacid-γGlu}-KCNTATCATQRLADFLRHSSNNL[X3]PILPPTNVGSNTP-NH2; disulfide 2-7) | 10.19
